# “Also recorded” adds a separate entry of the source.
# Legend:
# [1] = tested on: broadleaf weeds; test: Example 1: usual transplanting culture, paddy field, poured into flooded water, herbicidal effect on broadleaf weeds; assay type: in vivo; details: 3 weeks; further: key: 5: complete control; 4: excellent effect; 3: large effect; 2: fair effect; 1: small effect; 0: no effect
# From the text: (§1) DCPA and β-NAC were separately crushed into fine powders by a jetmizer. The crushed DCPA and β-NAC were mixed in ratios of 80 : 1; 40 : 1; 20 : 1 and 10 : 1 together with a dispersing agent (Sorpol 5039 manufactured by Toho Chemical Co. and Rapizol BB-74 manufactured by Nippon Fat & Oil Co.) to form a wettable powder. The compositions were applied under the following conditions in a paddy field of Ishigakijima, Okinawa-Ken, Japan.
# (§2) 1. Plot size: Two replications, each 1 m^2 per division
# (§3) 2. Culturing method: Usual transplanting
# (§4) 3. Rice variety: Taichu 65
# (§5) 5 - 6 leaf stage of rice plants at the transplanting;
# (§6) a. Treating time Mar. 16, 1974 (17 days after transplanting)
# (§7) 2 - 2.5 leaf stage of barnyard grass
# (§8) Each composition was diluted with 50 cc of water and the solution was poured in the rows by using a watering pot
# Monochoria vaginalis (Burm fil) Presl;
# Dopatrium junceum (Roxb) Hamilt;
# Rotala indica (Willd) koehne;
# Eleocharis acicularis Roem et Schult;
# (§9) After 3 weeks from the treatment, the herbicidal effect and the phytotoxicity were observed.
# [2] = tested on: rice plant; test: Reference Experiment 2: foliage treatment, phytotoxicity of rice plant; assay type: in vivo; details: DCPA 1000 ppm alone
# From the text: In unglazed pots having diameters of 9 cm, diluvium clay loam was filled and rice seeds and barnyard grass seeds were sowed and grown. […] The phytotoxicity of rice and herbicidal effect on barnyard grass were observed 20 days from the treatment.
# [3] = Experiment 3: decomposition of DCPA in soil; assay type: physicochemical; details: Alluvium loam soil, DCPA 100 g/are; for inhibition of the decomposition of DCPA in soil: NAC 3.3 g/are
# Experimental: The method of this invention is treatment in flooded water. Accordingly, transfer of the active ingredients into the soil of the paddy field is unavoidable. The decompositions of the active ingredients in the paddy soil were measured.
# Soil: Alluvium loam soil
# The active ingredients were uniformly mixed in a 5 mm
# Analysis: The concentrations of DCPA were
# measured by gas chromatography in […]
# [4] = tested on: barnyard grass; test: Example 2: mechanical transplanting using young seedlings, poured into flooded water, herbicidal effect on barnyard grass; assay type: in vivo, Echinochloa crusgalli; details: for Herbicidal Effect, BG: 20 days; on Herbicidal Effect, BG: key: 5: complete control; 4: excellent effect; 3: large effect; 2: fair effect; 1: small effect; 0: no effect
# Experimental: (§10) The tests were conducted by using the compositions of Example 1 in the paddy field of Ishigakijima, Okinawa-Ken, Japan.
# (§11) 1. Plot size: Two replications each 1 m^2 per division.
# (§12) 2. Culturing method: Mechanical transplanting using young seedlings
# (§13) 3. Rice variety: Nihonbare
# (§14) 4. Transplanting: Apr. 8, 1974
# (§15) 2.3 - 3 leaf stage of rice at the transplanting;
# (§16) 5. Depth of water: 3 - 5 cm
# (§17) A. first treatment: Apr. 19, 1974
# (§18) (16 days after transplanting)
# as §7
# (§19) B. second treatment: Apr. 23, 1974
# (§20) (20 days after transplanting)
# (§21) 3 - 3.5 leaf stage of barnyard grass.
# (§22) Each composition was diluted with 50 cc of water and the solution was poured in the rows by using a watering pot.
# (§23) Barnyard grass (Echinochloa crusgalli);
# (§24) After 20 days from the treatment (the first treatment and the second treatment), the herbicidal effects and the condition of the rice were observed.
# [5] = tested on: rice plant; test: Example 1: usual transplanting culture, paddy field, phytotoxicity to rice plant; assay type: in vivo, Taichu 65; design: key: X: killed; ++++: serious damage; +++: high damage; ++: middle damage; +: low damage; ±: quite low damage; -: no damage; details: 3 weeks
# From the text: as §1, §2, §3, §4, §5, §6, §7, §8, §9
# [6] = tested on: barnyard grass; test: Example 1: usual transplanting culture, paddy field, poured into flooded water, herbicidal effect on barnyard grass; assay type: in vivo, Echinochloa crusgalli; details: for Herbicidal effect, barnyard grass: 3 weeks; for herbicidal effect to barnyard grass and broadleaf weeds: poured into flooded water; on Herbicidal effect, barnyard grass: key: 5: complete control; 4: excellent effect; 3: large effect; 2: fair effect; 1: small effect; 0: no effect
# From the text: as §1, §2, §3, §4, §5, §6, §7, §8, §23, §9
# [7] = tested on: broadleaf weeds; test: Example 2: mechanical transplanting using young seedlings, poured into flooded water, herbicidal effect on broadleaf weeds; assay type: in vivo; details: 20 days; further: key: 5: complete control; 4: excellent effect; 3: large effect; 2: fair effect; 1: small effect; 0: no effect
# Experimental: as §10, §11, §12, §13, §14, §15, §16, §17, §18, §7, §19, §20, §21, §22
# Monochoria vaginalis (Burm fil) Presel;
# Rotala indica (Willd) Koehne;
# Scirpus juncoides Roxb; and
# as §24
# [8] = tested on: larva of mosquito; test: LD50 to larva of mosquito (Table 1); details: read-out: LD50 to larva of mosquito
# [9] = tested on: house fly; test: LD50 to house fly (Table 1); details: addition of piperinyl butoxide
# [10] = Insecticidal effect; details: in vivo
# [11] = A: 2 - 2.5 leaf stage, DCPA 60 g/are, β-NAC none
# [12] = B: 3 - 3.5 leaf stage, DCPA 60 g/are, β-NAC none
# [13] = A: 2 - 2.5 leaf stage, DCPA none, β-NAC 4.0 g/are
# [14] = B: 3 - 3.5 leaf stage, DCPA none, β-NAC 4.0 g/are
smiles,measurement,setting,value
"CCC(=O)Nc1ccc(Cl)c(Cl)c1 [DCPA, 3,4-dichloropropionanilide, reference compound]","Herbicidal effect, broadleaf weeds","[1]; DCPA 60 g/are, β-NAC none",0
same,Phytotoxicity to rice plants,[2],not found
same,minimum residues of DCPA in soil,"[3]; α-NAC or β-NAC 3.3 g/are where combined, gas chromatography",4 days
same,"Herbicidal Effect, BG",[4]; [11],0
same,"Herbicidal Effect, BG",[4]; [12],0
same,herbicidal effect,"[4]; DCPA 60 g/are, 2 - 2.5 and 3 - 3.5 leaf stage of barnyard grass",no herbicidal effect was found
same,Phytotoxicity to rice plant,"[5]; DCPA 60 g/are, β-NAC none",-
same,"Herbicidal effect, barnyard grass","[6]; DCPA 60 g/are, β-NAC none",0
same,herbicidal effect to barnyard grass and broadleaf weeds,[6]; DCPA 60 g/are,no herbicidal effect
same,"Herbicidal Effect, BLW",[7]; [11],0
same,"Herbicidal Effect, BLW",[7]; [12],0
"CNC(=O)Oc1ccc2ccccc2c1 [β-NAC, β-naphthyl-N-methyl carbamate]","Herbicidal effect, broadleaf weeds","[1]; DCPA none, β-NAC 4.0 g/are",0
same,inhibition of the decomposition of DCPA in soil,[3],higher effect for inhibiting the decomposition of DCPA
same,"Herbicidal Effect, BG",[4]; [13],0
same,"Herbicidal Effect, BG",[4]; [14],0
same,Phytotoxicity to rice plant,"[5]; DCPA none, β-NAC 4.0 g/are",-
same,LC50,[8],> 10 µg/mL
same,"Herbicidal effect, barnyard grass","[6]; DCPA none, β-NAC 4.0 g/are",0
same,herbicidal effect to barnyard grass and broadleaf weeds,[6]; β-NAC 4 g/are,no herbicidal effect
same,"Herbicidal Effect, BLW",[7]; [13],0
same,"Herbicidal Effect, BLW",[7]; [14],0
same,LD50 to house fly,[9],12.5 µg/g
same,insecticidal effect,[10],low insecticidal effect; also recorded: no insecticidal effect
"CNC(=O)Oc1cccc2ccccc12 [α-NAC, α-naphthyl-N-methyl carbamate]",inhibition of the decomposition of DCPA in soil,[3],inhibit the decomposition of DCPA
